Experimental data reported in article PMC11940147, “Copper Hexacyanoferrates Obtained via Flavocytochrome b2 Assistance: Characterization and Application” (Biosensors, 2025).

How the values were obtained:
[1] = system: T1, L-arginine oxidase (ArgO); experiment: colorimetric H2O2 detection with gCuHCF and o-dianisidine, Lineweaver-Burke; type: biochemical, Amanita phalloides; conditions: enzyme in solution; coupled to gCuHCF peroxidase mimic
T1 construct: native, purified from the mushroom by the authors' method
Excerpt: colorimetric H2O2 detection with gCuHCF and o-dianisidine, Lineweaver-Burke on L-arginine oxidase (ArgO) | kinetic constants of ArgO in the ArgO/gCuHCF/o-DZ method with respect to Arg

[2] = target: T2, flavocytochrome b2 (Fcb2) (Ogataea polymorpha, UniProt A0A9P8PNE1); experiment: cyclic voltammetry and chronoamperometry, Fcb2 in gCuHCF on graphite electrode; type: biochemical
T2 construct: gene OGATHE_001663
T2 sequence (A0A9P8PNE1 55-553): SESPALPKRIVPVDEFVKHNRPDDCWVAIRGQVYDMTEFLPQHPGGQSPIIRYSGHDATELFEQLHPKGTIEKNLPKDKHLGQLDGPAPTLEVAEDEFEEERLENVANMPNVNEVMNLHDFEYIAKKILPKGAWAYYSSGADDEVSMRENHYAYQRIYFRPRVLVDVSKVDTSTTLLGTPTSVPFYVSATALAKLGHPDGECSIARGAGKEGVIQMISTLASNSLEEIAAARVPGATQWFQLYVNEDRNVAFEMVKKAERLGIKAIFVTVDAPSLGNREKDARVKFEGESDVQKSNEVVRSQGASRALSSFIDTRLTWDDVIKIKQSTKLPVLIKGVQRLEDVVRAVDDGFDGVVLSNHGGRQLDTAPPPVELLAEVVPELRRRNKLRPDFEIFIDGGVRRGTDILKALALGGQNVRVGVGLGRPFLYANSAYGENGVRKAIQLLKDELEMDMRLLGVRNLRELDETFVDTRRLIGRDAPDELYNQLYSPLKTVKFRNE

Row | SMILES | Km [1] [µM] | cyclic voltammetry and chronoamperometry, Fcb2 in gCuHCF on graphite electrode [2]
1 | N=C(N)NCCC[C@H](N)C(=O)O [L-arginine] | 300 | –
2 | C[C@H](O)C(=O)O [L-lactate] | – | current output on lactate addition correlates with Fcb2 activity in the sensing layer
